Earlier results as cited in PMC4101043 (Antiviral research, 2014).
Where two headings read alike, the source gives them in different places.

Legend:
[1] = test system: Wild-Type HIV-1 NL4-3; conditions: MT-4 cells
[2] = test system: UGTs; conditions: stated as known, no reference given
[3] = dosage and study duration differ
[4] = CPE inhibition, ref Okello et al., 2013a

Compound	EC50 ([1]; ref Kobayashi et al., 2011)	UGT substrate status / dependence on UGTs for clearance [2]	NOAEL ([3]; adult rats, ref Rhodes et al., 2012)	EC50 [1, 4]	t1/2 (rats, po doses of 40–120 mg/kg, ref Merck, 2007)	Cl rate (rats, ref Laufer et al., 2009)	Oral bioavailability (F) (ref Merck, 2007)	NOAEL ([3]; ref Merck, 2007)
C[C@@H]1CCO[C@H]2Cn3cc(C(=O)NCc4ccc(F)cc4F)c(=O)c(O)c3C(=O)N12 [dolutegravir]	0.71 nM	substrates and depend on UGTs for clearance	50 mg/kg/day					
COc1cc2c(cc1Cc1cccc(Cl)c1F)c(=O)c(C(=O)O)cn2[C@H](CO)C(C)C [elvitegravir]		substrates and depend on UGTs for clearance		0.82 nM				
Cc1nnc(C(=O)NC(C)(C)c2nc(C(=O)NCc3ccc(F)cc3)c(O)c(=O)n2C)o1 [raltegravir]		substrates and depend on UGTs for clearance		6.54 nM	≤ 1.6 h	2298 mL/h/kg	32%	120 mg/kg/day
